system: not listed separately; assay: Cytotoxicity against human MRC5 cells assessed as cell viability at 3.125 to 100 uM measured after 24 hrs by MTT assay relative to control; format: toxicity, cell-based; details: dose 3.125-100 µM, read-out: Activity

Row | SMILES | viability at 24 h, up to 100 µM
1 | C[C@H]1NC(=O)NC1=O | > 80%
2 | O=C1NC(=O)[C@@H](c2ccccc2)N1 | > 80%
3 | CSCC[C@H]1NC(=O)NC1=O | > 80%
4 | Cc1ccc(S(=O)(=O)N2C(=O)CNC2=O)cc1 | > 80%
5 | CC(C)C(=O)N1C(=O)N[C@H](c2ccccc2)C1=O | > 80%
6 | O=C1CNC(=O)N1C(=O)c1cc([N+](=O)[O-])cc([N+](=O)[O-])c1 | > 80%
7 | CC(C)C(=O)N1C(=O)CNC1=O | > 80%
8 | O=C1CNC(=O)N1C(=O)Cc1ccccc1 | > 80%
9 | CC(=O)N1C(=O)CNC1=O | > 80%
10 | O=C1CNC(=O)N1 [HYDANTOIN] | > 80%

system: Plasmodium falciparum; assay: Antiplasmodial activity against Plasmodium falciparum 3D7 trophozoites assessed as parasite growth inhibition; format: functional, organism-based; details: not given

Row | SMILES | IC50
11 | C[C@H]1NC(=O)NC1=O | 916 µM
12 | O=C1NC(=O)[C@@H](c2ccccc2)N1 | > 1000 µM
13 | CSCC[C@H]1NC(=O)NC1=O | > 1000 µM
14 | Cc1ccc(S(=O)(=O)N2C(=O)CNC2=O)cc1 | 0.00397 µM
15 | CC(C)C(=O)N1C(=O)N[C@H](c2ccccc2)C1=O | 27.5 µM
16 | O=C1CNC(=O)N1C(=O)c1cc([N+](=O)[O-])cc([N+](=O)[O-])c1 | 625 µM
17 | CC(C)C(=O)N1C(=O)CNC1=O | > 1000 µM
18 | O=C1CNC(=O)N1C(=O)Cc1ccccc1 | 748 µM
19 | CC(=O)N1C(=O)CNC1=O | 147 µM
20 | O=C1CNC(=O)N1 [HYDANTOIN] | 623 µM

system: not listed separately; assay: Cytotoxicity against human MRC5 cells assessed as cell growth inhibition measured after 24 hrs by MTT assay; format: toxicity, cell-based; details: not given

Row | SMILES | IC50 at 24 h
21 | C[C@H]1NC(=O)NC1=O | > 100 µM
22 | O=C1NC(=O)[C@@H](c2ccccc2)N1 | > 100 µM
23 | CSCC[C@H]1NC(=O)NC1=O | > 100 µM
24 | Cc1ccc(S(=O)(=O)N2C(=O)CNC2=O)cc1 | > 100 µM
25 | CC(C)C(=O)N1C(=O)N[C@H](c2ccccc2)C1=O | > 100 µM
26 | O=C1CNC(=O)N1C(=O)c1cc([N+](=O)[O-])cc([N+](=O)[O-])c1 | > 100 µM
27 | CC(C)C(=O)N1C(=O)CNC1=O | > 100 µM
28 | O=C1CNC(=O)N1C(=O)Cc1ccccc1 | > 100 µM
29 | CC(=O)N1C(=O)CNC1=O | > 100 µM
30 | O=C1CNC(=O)N1 [HYDANTOIN] | > 100 µM

— ChEMBL document CHEMBL5385941, “Synthesis and biological evaluation of hydantoin derivatives as potent antiplasmodial agents” (Bioorg Med Chem Lett, 2024)
